# From patent EP0656889B1, “9-CHLOROPROSTAGLANDIN ESTERS AND AMIDES AND THEIR USE IN THE PREPARATION OF DRUGS” (SCHERING AKTIENGESELLSCHAFT, priority 1992, dated 1994)
# What was measured:
# [1] = test system: Hairless Ratten; assay: Measurement of skin blood flow (laser Doppler flowmeter) after topical application, Beispiel 12; format: in vivo; conditions: topical on abdomen of anaesthetised female hairless rats, solvent 5% Isopropylmyristat in Ethanol, measured 2 and 4 h after application (time not given)
# Description: (§1) Messung der Hautdurchblutung
# Hairless Ratten (weiblich) werden gewogen (200-250g), mit 0,5ml 25% Urethan in 0,9% NaCl /100g/kg (2/3 i.p., 1/3 s.c.) narkotisiert und auf eine vorgeheizte Wärmeplatte der Fa. Jowitherm gelegt.
# Auf dem Abdomen wird eine kreisförmige Fläche von 34mm Durchmesser ca. 2cm unterhalb der Sternumspitze markiert. Pro Tier wird eine Testsubstanz appliziert, die mit dem Randomisierungsprogramm RDRK zugeordnet wurde. Als Lösungsmittel wird 5% Isopropylmyristat in Ethanol verwendet. […] der jeweiligen Testlösung werden mit einer Eppendorf-Pipette gleichmäßig aufgetragen. Danach wird die behandelte Haut nochmals in drei Meßflächen von jeweils 18mm Druchmesser unterteilt und markiert. Die Hautdurchblutung wird 2 und 4 Stunden ( und gegebenenfalls 6 Stunden) nach der Applikation mit einem Laser Doppler Flowmeter (Firma Perimed) gemessen. Es werden an jedem Tier Dreifachmessungen an den markierten Stellen durchgeführt.
# [2] = test system: haarlosen Ratten; assay: Measurement of skin blood flow (non-invasive laser Doppler method) after topical application, Beispiel 13; format: in vivo, Ratten (Wister; hairless ); conditions: 4 h after local application on abdominal skin of anaesthetised (Urethan) hairless rats, solvent Isopropylmyristat in Ethanol 5/95 v/v
# Source text: as §1
# Die Hautdurchblutung wurde mit der nichtinvasiven Laser-Doppler Methode bestimmt. Die Messsungen wurden 4 Stunden nach der lokalen Applikation der Substanzen auf der Bauchhaut von narkotisierten ( Urethan ) haarlosen Ratten* durchgeführt. Als Lösungsmittel wurde Isopropylmyristat in Ethanol verwendet ( 5/95; v/v ).
# * Für diese Untersuchungen wurden weibliche Ratten (Wister; hairless ) mit einem Körpergewicht von 200-250g verwendet.
# [3] = applied concentration 0,001 Prozent
# [4] = applied concentration 0,003 Prozent
SMILES,"Steigerung der Hautdurchblutung in Prozent [1, 3]","Steigerung der Hautdurchblutung in Prozent [1, 4]","Steigerung der Hautdurchblutung in Prozent [2, 3]","Steigerung der Hautdurchblutung in Prozent [2, 4]"
"O=C(CCC/C=C\C[C@@H]1[C@@H](/C=C/[C@@H](O)C2CCCCC2)[C@H](O)C[C@H]1Cl)OCC(=O)c1ccccc1 [Beispiel 1, (5Z,13E)-(9R,11R,15S)-9-Chlor-15-cyclohexyl-11,15-dihydroxy-16,17,18,19,20-pentanor-5,13-prostadiensäurephenacylester]",50 Prozent,160 Prozent,,
"O=C(COC/C=C\C[C@@H]1[C@@H](/C=C/[C@@H](O)C2CCCCC2)[C@H](O)C[C@H]1Cl)OCC(=O)c1ccccc1 [Beispiel 3, (5Z,13E)-(9R,11R,15S)-9-Chlor-3-oxa-15-cyclohexyl-11,15-dihydroxy-16,17,18,19,20-pentanor-5,13-prostadiensäurephenacylester]",139 Prozent,146 Prozent,,
"CCOC(=O)CCC/C=C\C[C@@H]1[C@@H](/C=C/[C@@H](O)C2CCCCC2)[C@H](O)C[C@H]1Cl [Beispiel 6, (5Z,13E)-(9R,11R,15S)-9-Chlor-15-cyclohexyl-11,15-dihydroxy-16,17,18,19,20-pentanor-5,13-prostadiensäureethylester]",,,115 Prozent,197 Prozent
"CC(C)OC(=O)CCC/C=C\C[C@@H]1[C@@H](/C=C/[C@@H](O)C2CCCCC2)[C@H](O)C[C@H]1Cl [Beispiel 7, (5Z,13E)-(9R,11R,15S)-9-Chlor-15-cydohexyl-11,15-dihydroxy-16,17,18,19,20-pentanor-5,13-prostadiensäureisopropylester]",,,93 Prozent,183 Prozent
"CCOC(=O)COC/C=C\C[C@@H]1[C@@H](/C=C/[C@@H](O)C2CCCCC2)[C@H](O)C[C@H]1Cl [Beispiel 9, (5Z,13E)-(9R,11R,15S)-9-Chlor-3-oxa-15-cyclohexyl-11,15-dihydroxy-16,17,18,19,20-pentanor-5,13-prostadiensäureethylester]",,,200 Prozent,325 Prozent
"CC(C)OC(=O)COC/C=C\C[C@@H]1[C@@H](/C=C/[C@@H](O)C2CCCCC2)[C@H](O)C[C@H]1Cl [Beispiel 10, (5Z,13E)-(9R,11R,15S)-9-Chlor-3-oxa-15-cyclohexyl-11,15-dihydroxy-16,17,18,19,20-pentanor-5,13-prostadiensäureisopropylester]",,,232 Prozent,307 Prozent
